Where “and” joins values, the source holds several entries; their conditions need not be identical. Equal entries are not always repeated.
Tests used:
[1] = test system: onychomycosis of the toenail; experiment: Phase II clinical study: overall clinical efficacy; format: in vivo, human
Experimental: A Phase II clinical pharmacology study was conducted in subjects with onychomycosis of the toenail. The study investigated the pharmacokinetics, efficacy and safety of three different dosing regimens of fosravuconazole. […] The three treatment groups were as follows: • a.
(§1) The efficacy endpoints were: (1) overall clinical efficacy; (2) changes over time in efficacy; (3) confirmation of elements of dermatophytes by direct microscopy; and (4) results of identification of dermatophytes by the polymerase chain reaction (PCR) method.
Overall clinical efficacy (cure rate and response rate) at Weeks 48 and 24 after the study treatment initiation for the efficacy analysis population (per protocol set, PPS) are presented in Tables 1 and 2 below. Overall clinical efficacy (cure rate and response rate) at Weeks 48 and 24 after the study treatment initiation for the full analysis set (FAS) are presented in Tables 3 and 4 below.

Trichophyton rubrum = experiment: Identification of dermatophytes by PCR method: disappearance rate; format: in vivo; settings: Week 48
Excerpt: as §1

[2] = 100 mg once daily, Week 24, FAS
[3] = 100 mg once daily, Week 24, PPS
[4] = 100 mg once daily, Week 48, FAS
[5] = 100 mg once daily, Week 48, PPS
[6] = 200 mg pulse treatment, Week 24, FAS
[7] = 200 mg pulse treatment, Week 24, PPS
[8] = 200 mg pulse treatment, Week 48, FAS
[9] = 200 mg pulse treatment, Week 48, PPS
[10] = 400 mg pulse treatment, Week 24, FAS
[11] = 400 mg pulse treatment, Week 24, PPS
[12] = 400 mg pulse treatment, Week 48, FAS
[13] = 400 mg pulse treatment, Week 48, PPS

In the case of `C[C@@H](c1nc(-c2ccc(C#N)cc2)cs1)[C@@](Cn1cncn1)(OCOP(=O)(O)O)c1ccc(F)cc1F` [fosravuconazole, 4-[2-[(1R,2R)-2-(2,4-difluorophenyl)-1-methyl-2-[(phosphonooxy)methoxy]-3-(1H-1,2,4-triazol-1-yl)propyl]-4-thiazolyl]benzo-nitrile], the “Cure rate and 95% CI” value [1, 2] is reported as 0.0 (0.0, 13.2) %, the Cured [1, 2] is reported as 0 and the Failed [1, 2] is reported as 0. The Improved [1, 2] was 6, the Markedly improved [1, 2] was 20 and the “Response rate and 95% CI” value [1, 2] was 76.9 (56.4, 91.0) %. The Slightly improved [1, 2] was 0, the “Cure rate and 95% CI” value [1, 3] was 0.0 (0.0, 13.7) % and the Cured [1, 3] was 0. For the same compound, the Failed [1, 3] was 0, the Improved [1, 3] was 6 and the Markedly improved [1, 3] was 19. The “Response rate and 95% CI” value [1, 3] was 76.0 (54.9, 90.6) %, the Slightly improved [1, 3] was 0 and the “Cure rate and 95% CI” value [1, 4] was 38.5 (20.3, 59.4) %. The Cured [1, 4] was 10, the Failed [1, 4] was 0 and the Improved [1, 4] was 1. For the same compound, the Markedly improved [1, 4] was 15, the “Response rate and 95% CI” value [1, 4] was 96.2 (80.4, 99.9) % and the Slightly improved [1, 4] was 0. For the same compound, the “Cure rate and 95% CI” value [1, 5] was 40.0% and 40.0 (21.2, 61.3) %, the Cured [1, 5] was 10 and the Failed [1, 5] was 0. For the same compound, the Improved [1, 5] was 1, the Markedly improved [1, 5] was 14 and the “Response rate and 95% CI” value [1, 5] was 96.0% and 96.0 (79.7, 99.8) %. For the same compound, the Slightly improved [1, 5] was 0, the “Cure rate and 95% CI” value [1, 6] was 3.6 (0.1, 18.3) % and the Cured [1, 6] was 1. For the same compound, the Failed [1, 6] was 0, the Improved [1, 6] was 10 and the Markedly improved [1, 6] was 16. For the same compound, the “Response rate and 95% CI” value [1, 6] was 60.7 (40.6, 78.4) %, the Slightly improved [1, 6] was 1 and the “Cure rate and 95% CI” value [1, 7] was 4.0 (0.2, 20.3) %. The Cured [1, 7] was 1, the Failed [1, 7] was 0 and the Improved [1, 7] was 9. The Markedly improved [1, 7] was 14, the “Response rate and 95% CI” value [1, 7] was 60.0 (38.7, 78.8) % and the Slightly improved [1, 7] was 1. The “Cure rate and 95% CI” value [1, 8] was 32.0 (15.0, 53.5) %, the Cured [1, 8] was 8 and the Failed [1, 8] was 0. For the same compound, the Improved [1, 8] was 4, the Markedly improved [1, 8] was 13 and the “Response rate and 95% CI” value [1, 8] was 84.0 (64.0, 95.4) %. For the same compound, the Slightly improved [1, 8] was 0, the “Cure rate and 95% CI” value [1, 9] was 27.3% and 27.3 (10.8, 50.2) % and the Cured [1, 9] was 6. It also gave a Failed [1, 9] of 0, an Improved [1, 9] of 4 and a Markedly improved [1, 9] of 12. For the same compound, the “Response rate and 95% CI” value [1, 9] was 81.8% and 81.8 (59.8, 94.8) %, the Slightly improved [1, 9] was 0 and the “Cure rate and 95% CI” value [1, 10] was 0.0 (0.0, 11.2) %. For the same compound, the Cured [1, 10] was 0, the Failed [1, 10] was 0 and the Improved [1, 10] was 11. For the same compound, the Markedly improved [1, 10] was 17, the “Response rate and 95% CI” value [1, 10] was 54.8 (36.1, 72.6) % and the Slightly improved [1, 10] was 3. For the same compound, the “Cure rate and 95% CI” value [1, 11] was 0.0 (0.0, 11.2) %, the Cured [1, 11] was 0 and the Failed [1, 11] was 0. The Improved [1, 11] was 11, the Markedly improved [1, 11] was 17 and the “Response rate and 95% CI” value [1, 11] was 54.8 (36.1, 72.6) %. The Slightly improved [1, 11] was 3, the “Cure rate and 95% CI” value [1, 12] was 40.7 (22.4, 61.2) % and the Cured [1, 12] was 11. It also gave a Failed [1, 12] of 0, an Improved [1, 12] of 4 and a Markedly improved [1, 12] of 12. For the same compound, the “Response rate and 95% CI” value [1, 12] was 85.2 (66.3, 95.8) %, the Slightly improved [1, 12] was 0 and the “Cure rate and 95% CI” value [1, 13] was 40.7% and 40.7 (22.4, 61.2) %. It also gave a Cured [1, 13] of 11, a Failed [1, 13] of 0 and an Improved [1, 13] of 4. For the same compound, the Markedly improved [1, 13] was 12, the “Response rate and 95% CI” value [1, 13] was 85.2% and 85.2 (66.3, 95.8) % and the Slightly improved [1, 13] was 0. For the same compound, the “Disappearance rate of Trichophyton rubrum” value (shortened to “Disappearance rate”) (Trichophyton rubrum; 100 mg (once daily dose) group) was 57.1%, the “Disappearance rate” value (Trichophyton rubrum; 200 mg (pulse treatment) group) was 36.8% and the “Disappearance rate” value (Trichophyton rubrum; 400 mg (pulse treatment) group) was 52.1% and 52.0%.

Source: patent publication US11324728B2, “Dosing regimens for the treatment of fungal infections” (Seren Pharmaceuticals Inc., priority 2017, dated 2022)
